# Measured values reported in ChEMBL document CHEMBL5036378, “Discovery of 5-Aryl-2,4-diaminopyrimidine Compounds as Potent and Selective IRAK4 Inhibitors” (ACS Med Chem Lett, 2022).
# What was measured:
# [1] = biological target: T1, Interleukin-1 receptor-associated kinase 4 (Homo sapiens, UniProt Q9NWZ3); experiment: Inhibition of IRAK4 (unknown origin) in presence of MBP as substrate by ADP-Glo assay
# T1 sequence (Q9NWZ3 whole entry): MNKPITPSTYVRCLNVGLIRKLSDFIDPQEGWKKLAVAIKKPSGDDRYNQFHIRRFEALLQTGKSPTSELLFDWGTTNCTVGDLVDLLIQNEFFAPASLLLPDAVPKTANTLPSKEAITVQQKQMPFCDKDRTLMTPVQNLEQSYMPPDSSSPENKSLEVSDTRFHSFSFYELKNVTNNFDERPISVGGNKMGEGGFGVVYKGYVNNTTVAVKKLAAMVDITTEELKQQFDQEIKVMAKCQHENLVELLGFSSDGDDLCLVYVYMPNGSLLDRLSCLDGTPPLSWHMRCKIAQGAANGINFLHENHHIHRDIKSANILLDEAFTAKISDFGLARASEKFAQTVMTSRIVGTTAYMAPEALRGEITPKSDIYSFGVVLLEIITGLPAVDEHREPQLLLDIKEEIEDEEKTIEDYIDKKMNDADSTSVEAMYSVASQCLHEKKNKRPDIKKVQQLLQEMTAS
# [2] = biological target: T2, Mitogen-activated protein kinase kinase kinase 7 (Homo sapiens, UniProt O43318); experiment: Inhibition of TAK1 (unknown origin) in presence of MBP as substrate by ADP-Glo assay
# T2 sequence (O43318 whole entry): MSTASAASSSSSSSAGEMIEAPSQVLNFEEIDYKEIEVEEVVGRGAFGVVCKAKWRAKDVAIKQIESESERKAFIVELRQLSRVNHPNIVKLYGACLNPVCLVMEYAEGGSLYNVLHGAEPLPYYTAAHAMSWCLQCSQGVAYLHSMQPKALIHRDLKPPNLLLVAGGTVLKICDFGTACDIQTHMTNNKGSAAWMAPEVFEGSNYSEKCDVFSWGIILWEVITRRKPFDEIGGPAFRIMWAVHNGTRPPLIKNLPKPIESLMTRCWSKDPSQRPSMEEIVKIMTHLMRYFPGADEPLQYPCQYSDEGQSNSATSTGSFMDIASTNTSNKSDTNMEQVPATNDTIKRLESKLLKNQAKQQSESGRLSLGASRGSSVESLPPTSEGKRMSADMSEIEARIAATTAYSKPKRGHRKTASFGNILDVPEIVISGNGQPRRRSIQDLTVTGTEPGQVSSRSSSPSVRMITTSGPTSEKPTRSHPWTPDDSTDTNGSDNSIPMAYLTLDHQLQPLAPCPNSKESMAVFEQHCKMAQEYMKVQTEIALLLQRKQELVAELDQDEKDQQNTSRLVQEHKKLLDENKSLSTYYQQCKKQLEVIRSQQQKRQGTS
# THP-1 = experiment: Antiinflammatory activity against human THP-1 cells assessed as inhibition of LPS induced IL-23 production preincubated with compound for 1 hr followed by LPS stimulation and measured after 18 hrs by cell based ELISA method; type: functional
# [3] = Drug concentration in female BALB/c mouse plasma at 75 mg/kg, po incubated for 30 mins followed by IL-1beta administration and measured after 30 mins; type: ADME, organism-based; conditions: time 60 min, read-out: Drug uptake
# Mus musculus = experiment: Antiinflammatory activity in female BALB/c mouse assessed as inhibition of IL-1beta induced IL-6 levels at 75 mg/kg, po for 30 mins followed by IL-1beta administration and measured after 1.5 hrs by ELISA method; type: functional; conditions: time 2 hrs
# HUVEC [4] = experiment: Antiinflammatory activity against HUVEC cells assessed as inhibition of IL-1beta induced IL-6 production preincubated with compound for 1 hr followed by IL-1beta stimulation and measured after 12 hrs by cell based ELISA method; type: functional; conditions: Homo sapiens
# [5] = Antiinflammatory activity against human monocyte derived dendritic cells assessed as inhibition of LPS induced IL-23 production preincubated with compound for 1 hr followed by LPS stimulation and measured after 18 hrs by cell based ELISA method; type: functional
# Blood = experiment: Antiinflammatory activity against human whole blood assessed as inhibition of IL-1beta induced MIP-1beta production preincubated with compound for 1 hr followed by IL-1beta stimulation and measured after 12 hrs by cell based ELISA method; type: functional, tissue-based
# HUVEC [6] = experiment: Antiinflammatory activity against HUVEC cells assessed as inhibition of LPS induced IL-6 production measured by ELISA method; type: functional, cell-based; conditions: Homo sapiens
SMILES,IC50 [1] [nM],IC50 [2] [nM],IC50 (THP-1) [nM],also measured
CN1CCN(c2ccc(Nc3ncc(-c4cccc(F)c4)c(N[C@H]4[C@@H](C(N)=O)[C@@H]5C=C[C@H]4C5)n3)cn2)CC1,26,280,240,–
NC(=O)[C@@H]1[C@H](Nc2nc(Nc3cccc(C(=O)N4CCCC4)c3)ncc2-c2cncc(F)c2)[C@H]2C=C[C@@H]1C2,–,–,–,concentration at 1 h [3]: 2880 ng/mL
Cc1cnc(Nc2cccc(C(=O)N3CCCC3)c2)nc1N[C@H]1[C@@H](C(N)=O)[C@@H]2C=C[C@H]1C2,–,–,100,–
NC(=O)[C@@H]1[C@H](Nc2nc(Nc3cccc(C(=O)N4CCCC4)c3)ncc2-c2ccsc2)[C@H]2C=C[C@@H]1C2,5,27,110,–
NC(=O)[C@@H]1[C@H](Nc2nc(Nc3ccc(OCCN4CCCC4)cc3)ncc2-c2cccnc2)[C@H]2C=C[C@@H]1C2,103,380,700,–
NC(=O)[C@@H]1[C@H](Nc2nc(Nc3ccnc(N4CCCC4)c3)ncc2-c2cccc(F)c2)[C@H]2C=C[C@@H]1C2,33,2400,280,–
NC(=O)[C@@H]1[C@H](Nc2nc(Nc3cccc(C(=O)N4CCCC4)c3)ncc2-c2ccoc2)[C@H]2C=C[C@@H]1C2,–,–,40,–
N#Cc1ccc(-c2cnc(Nc3cccc(C(=O)N4CCCC4)c3)nc2N[C@H]2[C@@H](C(N)=O)[C@@H]3C=C[C@H]2C3)cc1,–,–,190,–
N#Cc1cccc(-c2cnc(Nc3cccc(C(=O)N4CCCC4)c3)nc2N[C@H]2[C@@H](C(N)=O)[C@@H]3C=C[C@H]2C3)c1,–,100,280,–
NC(=O)[C@@H]1[C@H](Nc2nc(Nc3cccc(C(=O)N4CCCC4)c3)ncc2-c2ccnc(F)c2)[C@H]2C=C[C@@H]1C2,–,–,100,inhibition in vivo at 75 mg/kg (Mus musculus): 64%; IC50 (HUVEC [4]): 110 nM; IC50 [5]: 110 nM; concentration at 1 h [3]: 6820 ng/mL; IC50 (Blood): 510 nM; IC50 (HUVEC [6]): 120 nM
NC(=O)[C@@H]1[C@H](Nc2nc(Nc3cccc(C(=O)N4CCCC4)c3)ncc2-c2cccnc2)[C@H]2C=C[C@@H]1C2,–,–,320,–
NC(=O)[C@@H]1[C@H](Nc2nc(Nc3cccc(C(=O)N4CCCC4)c3)ncc2C2CC2)[C@H]2C=C[C@@H]1C2,–,–,90,–
NC(=O)[C@@H]1[C@H](Nc2nc(Nc3cccc(C(=O)N4CCOCC4)c3)ncc2-c2cccc(F)c2)[C@H]2C=C[C@@H]1C2,14,94,220,–
CN1CCN(c2cc(Nc3ncc(-c4cccc(F)c4)c(N[C@H]4[C@@H](C(N)=O)[C@@H]5C=C[C@H]4C5)n3)ccn2)CC1,6,120,50,–
Cc1cc(Nc2ncc(-c3cccnc3)c(N[C@H]3[C@@H](C(N)=O)[C@@H]4C=C[C@H]3C4)n2)ccc1OCCN1CCCC1,179,450,1100,–
NC(=O)[C@@H]1[C@H](Nc2nc(Nc3cccc(-c4cnco4)c3)ncc2-c2cccc(F)c2)[C@H]2C=C[C@@H]1C2,25,270,390,–
NC(=O)[C@@H]1[C@H](Nc2nc(Nc3cccc(C(=O)N4CCCC4)c3)ncc2-c2cccc(F)c2)[C@H]2C=C[C@@H]1C2,4,24,870,–
NC(=O)[C@@H]1[C@H](Nc2nc(Nc3cccc(C(=O)N4CCCC4)c3)ncc2-c2ccc(F)cc2)[C@H]2C=C[C@@H]1C2,–,–,460,–
NC(=O)[C@@H]1[C@H](Nc2nc(Nc3cccc(C(=O)N4CCCC4)c3)ncc2-c2ccccc2F)[C@H]2C=C[C@@H]1C2,11,–,130,–
CN1CCN(C(=O)c2cccc(Nc3ncc(-c4cccc(F)c4)c(N[C@H]4[C@@H](C(N)=O)[C@@H]5C=C[C@H]4C5)n3)c2)CC1,5,48,130,–
NC(=O)[C@@H]1[C@H](Nc2nc(Nc3cc(F)cc(N4CCOCC4)c3)ncc2-c2cccc(F)c2)[C@H]2C=C[C@@H]1C2,12,1000,250,–
NC(=O)[C@@H]1[C@H](Nc2nc(Nc3cccc(C(=O)N4CCCC4)c3)ncc2-c2ccccc2)[C@H]2C=C[C@@H]1C2,–,170,220,–
NC(=O)[C@@H]1[C@H](Nc2nc(Nc3ccnc(N4CCOCC4)c3)ncc2-c2cccc(F)c2)[C@H]2C=C[C@@H]1C2,8,160,40,–
NC(=O)[C@@H]1[C@H](Nc2nc(Nc3ccc(-c4cnco4)cc3)ncc2-c2cccc(F)c2)[C@H]2C=C[C@@H]1C2,37,390,290,–
NC(=O)[C@@H]1[C@H](Nc2nc(Nc3ccc(C(=O)N4CCCC4)cc3)ncc2-c2cccnc2)[C@H]2C=C[C@@H]1C2,26,250,230,–
NC(=O)[C@@H]1[C@H](Nc2nc(Nc3ccc(N4CCOCC4)nc3)ncc2-c2cccc(F)c2)[C@H]2C=C[C@@H]1C2,25,450,210,–
NC(=O)[C@@H]1[C@H](Nc2nc(Nc3cccc(C(=O)N4CCCC4)c3)ncc2-c2ccncc2)[C@H]2C=C[C@@H]1C2,10,230,320,–
CN1CCN(c2cc(F)cc(Nc3ncc(-c4cccc(F)c4)c(N[C@H]4[C@@H](C(N)=O)[C@@H]5C=C[C@H]4C5)n3)c2)CC1,18,100,260,–
